Assay results reported in ChEMBL document CHEMBL1201862, “PubChem BioAssay data set” (2004).
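Tested at 5 concentrations; 48 h exposure; 96-well plates; endpoints linearly interpolated, else capped at highest concentration. GI50: concentration for 50% inhibition of growth.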 Active and inactive are the calls of the source. Rule as the data show it: active = GI50 up to about 1.1 µM and inactive = higher.

Key:
Experiment in all cases: NCI-60 cell line screen, 48 h
U-251 = test system: U-251
DU-145 = test system: DU-145
HCT-116 = test system: HCT-116
HT-29 = test system: HT-29
HOP-62 = test system: HOP-62
SK-OV-3 = test system: SK-OV-3
NCI/ADR-RES = test system: NCI/ADR-RES
SW-620 = test system: SW-620
OVCAR-8 = test system: OVCAR-8
T47D = test system: T47D
OVCAR-5 = test system: OVCAR-5
NCI-H522 = test system: NCI-H522
SK-MEL-5 = test system: SK-MEL-5
SF-295 = test system: SF-295
OVCAR-4 = test system: OVCAR-4
PC-3 = test system: PC-3
SF-268 = test system: SF-268
SK-MEL-28 = test system: SK-MEL-28
SNB-75 = test system: SNB-75
EKVX = test system: EKVX
NCI-H460 = test system: NCI-H460
RPMI-8226 = test system: RPMI-8226
IGROV-1 = test system: IGROV-1
UACC-62 = test system: UACC-62
HCT-15 = test system: HCT-15
Malme-3M = test system: Malme-3M
MDA-MB-435 = test system: MDA-MB-435
COLO 205 = test system: COLO 205
A498 = test system: A498
SR = test system: SR
ACHN = test system: ACHN
CAKI-1 = test system: CAKI-1
HCC 2998 = test system: HCC 2998
MDA-MB-231 = test system: MDA-MB-231
RXF 393 = test system: RXF 393
TK-10 = test system: TK-10
NCI-H226 = test system: NCI-H226
CCRF-CEM = test system: CCRF-CEM
M14 = test system: M14
NCI-H23 = test system: NCI-H23
SN12C = test system: SN12C
MDA-N = test system: MDA-N
Hs-578T = test system: Hs-578T
MCF7 = test system: MCF7
MOLT-4 = test system: MOLT-4
SF-539 = test system: SF-539
SNB-19 = test system: SNB-19
SK-MEL-2 = test system: SK-MEL-2
K562 = test system: K562
HL-60 = test system: HL-60
UO-31 = test system: UO-31
A549 = test system: A549
KM12 = test system: KM12
786-0 = test system: 786-0
HOP-92 = test system: HOP-92
OVCAR-3 = test system: OVCAR-3
LOX IMVI = test system: LOX IMVI
UACC-257 = test system: UACC-257

## c1ccc(CSC(SCc2ccccc2)c2cccc3ccccc23)cc1
U-251
  GI50: > 10 µM (inactive)
DU-145
  GI50: > 10 µM (inactive)
HCT-116
  GI50: > 10 µM (inactive)
HT-29
  GI50: > 10 µM (inactive)
HOP-62
  GI50: > 10 µM (inactive)
SK-OV-3
  GI50: > 10 µM (inactive)
NCI/ADR-RES
  GI50: > 10 µM (inactive)
SW-620
  GI50: > 10 µM (inactive)
OVCAR-8
  GI50: > 10 µM (inactive)
T47D
  GI50: 9.73 µM (inactive)
OVCAR-5
  GI50: > 10 µM (inactive)
NCI-H522
  GI50: 7.87 µM (inactive)
SK-MEL-5
  GI50: > 10 µM (inactive)
SF-295
  GI50: 8.85 µM (inactive)
OVCAR-4
  GI50: > 10 µM (inactive)
PC-3
  GI50: > 10 µM (inactive)
SF-268
  GI50: > 10 µM (inactive)
SK-MEL-28
  GI50: > 10 µM (inactive)
SNB-75
  GI50: > 10 µM (inactive)
EKVX
  GI50: > 10 µM (inactive)
NCI-H460
  GI50: > 10 µM (inactive)
RPMI-8226
  GI50: 9.79 µM (inactive)
IGROV-1
  GI50: > 10 µM (inactive)
UACC-62
  GI50: > 10 µM (inactive)
HCT-15
  GI50: > 10 µM
Malme-3M
  GI50: > 10 µM (inactive)
MDA-MB-435
  GI50: > 10 µM (inactive)
COLO 205
  GI50: > 10 µM (inactive)
A498
  GI50: > 10 µM (inactive)
SR
  GI50: > 10 µM (inactive)
ACHN
  GI50: > 10 µM (inactive)
CAKI-1
  GI50: > 10 µM (inactive)
HCC 2998
  GI50: > 10 µM (inactive)
MDA-MB-231
  GI50: > 10 µM (inactive)
RXF 393
  GI50: > 10 µM (inactive)
TK-10
  GI50: > 10 µM (inactive)
NCI-H226
  GI50: > 10 µM (inactive)
CCRF-CEM
  GI50: > 10 µM (inactive)
M14
  GI50: > 10 µM (inactive)
NCI-H23
  GI50: 3.82 µM (inactive)
SN12C
  GI50: > 10 µM (inactive)
MDA-N
  GI50: > 10 µM (inactive)
Hs-578T
  GI50: > 10 µM (inactive)
MCF7
  GI50: > 10 µM (inactive)
MOLT-4
  GI50: > 10 µM (inactive)
SF-539
  GI50: > 10 µM (inactive)
SNB-19
  GI50: > 10 µM (inactive)
SK-MEL-2
  GI50: > 10 µM (inactive)
K562
  GI50: > 10 µM (inactive)
HL-60
  GI50: > 10 µM (inactive)
UO-31
  GI50: > 10 µM (inactive)
A549
  GI50: > 10 µM (inactive)
KM12
  GI50: > 10 µM (inactive)

## Cn1c(N/N=C/c2ccccc2)nc(-c2ccc3c(c2)OCO3)c(C#N)c1=O
U-251
  GI50: > 100 µM (inactive)
DU-145
  GI50: 84.5 µM (inactive)
HCT-116
  GI50: > 100 µM (inactive)
HT-29
  GI50: > 100 µM (inactive)
HOP-62
  GI50: > 100 µM (inactive)
SK-OV-3
  GI50: > 100 µM (inactive)
NCI/ADR-RES
  GI50: > 100 µM (inactive)
SW-620
  GI50: > 100 µM (inactive)
OVCAR-8
  GI50: 22.8 µM (inactive)
T47D
  GI50: > 100 µM (inactive)
OVCAR-5
  GI50: > 100 µM (inactive)
NCI-H522
  GI50: > 100 µM (inactive)
SK-MEL-5
  GI50: 69 µM (inactive)
SF-295
  GI50: 84.9 µM (inactive)
OVCAR-4
  GI50: 61.7 µM (inactive)
PC-3
  GI50: 56.8 µM (inactive)
SF-268
  GI50: > 100 µM (inactive)
SK-MEL-28
  GI50: > 100 µM (inactive)
SNB-75
  GI50: > 100 µM (inactive)
EKVX
  GI50: 70.6 µM (inactive)
NCI-H460
  GI50: 87.7 µM (inactive)
786-0
  GI50: > 100 µM (inactive)
RPMI-8226
  GI50: 47.1 µM (inactive)
IGROV-1
  GI50: 20.9 µM (inactive)
UACC-62
  GI50: 40.3 µM (inactive)
HCT-15
  GI50: 36.5 µM
Malme-3M
  GI50: > 100 µM (inactive)
MDA-MB-435
  GI50: 73.8 µM (inactive)
COLO 205
  GI50: 58.3 µM (inactive)
A498
  GI50: 95.9 µM (inactive)
SR
  GI50: 25.5 µM (inactive)
ACHN
  GI50: 59.3 µM (inactive)
CAKI-1
  GI50: 99.3 µM (inactive)
MDA-MB-231
  GI50: 14 µM (inactive)
RXF 393
  GI50: 81.8 µM (inactive)
TK-10
  GI50: 69.7 µM (inactive)
CCRF-CEM
  GI50: 94 µM (inactive)
M14
  GI50: > 100 µM (inactive)
NCI-H23
  GI50: > 100 µM (inactive)
SN12C
  GI50: 65.2 µM (inactive)
MDA-N
  GI50: > 100 µM (inactive)
Hs-578T
  GI50: 48.5 µM (inactive)
MCF7
  GI50: > 100 µM (inactive)
HOP-92
  GI50: 2.85 µM (inactive)
MOLT-4
  GI50: 48.4 µM (inactive)
OVCAR-3
  GI50: 27.5 µM (inactive)
SF-539
  GI50: > 100 µM (inactive)
SNB-19
  GI50: > 100 µM (inactive)
SK-MEL-2
  GI50: > 100 µM (inactive)
LOX IMVI
  GI50: 55.6 µM (inactive)
UACC-257
  GI50: 77.1 µM (inactive)
K562
  GI50: 87.3 µM (inactive)
HL-60
  GI50: 39.9 µM (inactive)
UO-31
  GI50: 77.3 µM (inactive)
A549
  GI50: 45.4 µM (inactive)
KM12
  GI50: 88.1 µM (inactive)

## C/C(=C\CCC1=CC(=O)OC1)CC[C@@H]1[C@H]2C(=O)CC(C)[C@@]3(C)CC[C@]1(C)[C@@]23C (some centres undefined)
DU-145
  GI50: > 10 µM (inactive)
HT-29
  GI50: > 10 µM (inactive)
HOP-62
  GI50: > 10 µM (inactive)
SK-OV-3
  GI50: > 10 µM (inactive)
SW-620
  GI50: > 10 µM (inactive)
OVCAR-8
  GI50: > 10 µM (inactive)
T47D
  GI50: > 10 µM (inactive)
SK-MEL-5
  GI50: > 10 µM (inactive)
SF-295
  GI50: > 10 µM (inactive)
PC-3
  GI50: > 10 µM (inactive)
SF-268
  GI50: > 10 µM (inactive)
SK-MEL-28
  GI50: > 10 µM (inactive)
SNB-75
  GI50: > 10 µM (inactive)
EKVX
  GI50: > 10 µM (inactive)
786-0
  GI50: > 10 µM (inactive)
RPMI-8226
  GI50: > 10 µM (inactive)
IGROV-1
  GI50: > 10 µM (inactive)
UACC-62
  GI50: > 10 µM (inactive)
HCT-15
  GI50: > 10 µM
Malme-3M
  GI50: > 10 µM (inactive)
COLO 205
  GI50: > 10 µM (inactive)
SR
  GI50: > 10 µM (inactive)
CAKI-1
  GI50: > 10 µM (inactive)
HCC 2998
  GI50: > 10 µM (inactive)
MDA-MB-231
  GI50: > 10 µM (inactive)
RXF 393
  GI50: > 10 µM (inactive)
TK-10
  GI50: > 10 µM (inactive)
CCRF-CEM
  GI50: > 10 µM (inactive)
M14
  GI50: > 10 µM (inactive)
NCI-H23
  GI50: > 10 µM (inactive)
SN12C
  GI50: > 10 µM (inactive)
MDA-N
  GI50: > 10 µM (inactive)
MCF7
  GI50: > 10 µM (inactive)
MOLT-4
  GI50: > 10 µM (inactive)
LOX IMVI
  GI50: > 10 µM (inactive)
UACC-257
  GI50: > 10 µM (inactive)
K562
  GI50: > 10 µM (inactive)
HL-60
  GI50: > 10 µM (inactive)
A549
  GI50: > 10 µM (inactive)
KM12
  GI50: > 10 µM (inactive)
